Measured values as given in patent US20140005163A1 (NOVARTIS AG, priority 2010, published 2014).

Key:
[1] = biological target: T1, PI3K alpha (Homo sapiens, UniProt P42336); test: PI3K alpha kinase assay (Kinase-Glo luminescence); format: biochemical
T1 construct: p85(iSH2) fusion partner (see partner chain) (N); His tag (C); made in house; host or cells: baculovirus; Tn5 (Trichoplusia ni) or TiniPro insect cells
Method in brief: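 PI3K alpha at 10 nM with 1 μM ATP and 10 μg/mL phosphatidylinositol in 10 mM TRIS pH 7.5, 3 mM MgCl2, 50 mM NaCl, 0.05% CHAPS, 1 mM DTT, 60 min at room temperature. Remaining ATP read by Kinase-Glo luminescence. IC50 by 4-parameter fit over 8 concentrations.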

[2] = system: PKB Ser473 phosphorylation in Rat1-myr-HA-p110 alpha cells; test: Reverse protein array assay, PKB Ser473 phosphorylation in Rat1-myr-p110 alpha cells; format: cell-based; conditions: 0.5 h, pAkt Ser473, 30 minutes compound incubation, read-out: p-PKB IC50
Method in brief: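 Measured: PKB Ser473 phosphorylation by reverse protein array in Rat1 cells expressing myr-HA-p110 alpha, beta or delta, after 30 min compound treatment at 37 °C with 0.2% DMSO vehicle.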

[3] = biological target: T2, PI3K beta (Homo sapiens, UniProt P42338); test: PI3K beta kinase assay (Kinase-Glo luminescence); format: biochemical
T2 construct: for the full-length p110-b subunit are generated and fused by overlapping PCR; p85(iSH2) fusion partner (see partner chain) (N); His tag (C); made in house; host or cells: baculovirus; Tn5 (Trichoplusia ni) or TiniPro insect cells
T2 sequence (P42338 with tags, fused parts or gaps limits assumed): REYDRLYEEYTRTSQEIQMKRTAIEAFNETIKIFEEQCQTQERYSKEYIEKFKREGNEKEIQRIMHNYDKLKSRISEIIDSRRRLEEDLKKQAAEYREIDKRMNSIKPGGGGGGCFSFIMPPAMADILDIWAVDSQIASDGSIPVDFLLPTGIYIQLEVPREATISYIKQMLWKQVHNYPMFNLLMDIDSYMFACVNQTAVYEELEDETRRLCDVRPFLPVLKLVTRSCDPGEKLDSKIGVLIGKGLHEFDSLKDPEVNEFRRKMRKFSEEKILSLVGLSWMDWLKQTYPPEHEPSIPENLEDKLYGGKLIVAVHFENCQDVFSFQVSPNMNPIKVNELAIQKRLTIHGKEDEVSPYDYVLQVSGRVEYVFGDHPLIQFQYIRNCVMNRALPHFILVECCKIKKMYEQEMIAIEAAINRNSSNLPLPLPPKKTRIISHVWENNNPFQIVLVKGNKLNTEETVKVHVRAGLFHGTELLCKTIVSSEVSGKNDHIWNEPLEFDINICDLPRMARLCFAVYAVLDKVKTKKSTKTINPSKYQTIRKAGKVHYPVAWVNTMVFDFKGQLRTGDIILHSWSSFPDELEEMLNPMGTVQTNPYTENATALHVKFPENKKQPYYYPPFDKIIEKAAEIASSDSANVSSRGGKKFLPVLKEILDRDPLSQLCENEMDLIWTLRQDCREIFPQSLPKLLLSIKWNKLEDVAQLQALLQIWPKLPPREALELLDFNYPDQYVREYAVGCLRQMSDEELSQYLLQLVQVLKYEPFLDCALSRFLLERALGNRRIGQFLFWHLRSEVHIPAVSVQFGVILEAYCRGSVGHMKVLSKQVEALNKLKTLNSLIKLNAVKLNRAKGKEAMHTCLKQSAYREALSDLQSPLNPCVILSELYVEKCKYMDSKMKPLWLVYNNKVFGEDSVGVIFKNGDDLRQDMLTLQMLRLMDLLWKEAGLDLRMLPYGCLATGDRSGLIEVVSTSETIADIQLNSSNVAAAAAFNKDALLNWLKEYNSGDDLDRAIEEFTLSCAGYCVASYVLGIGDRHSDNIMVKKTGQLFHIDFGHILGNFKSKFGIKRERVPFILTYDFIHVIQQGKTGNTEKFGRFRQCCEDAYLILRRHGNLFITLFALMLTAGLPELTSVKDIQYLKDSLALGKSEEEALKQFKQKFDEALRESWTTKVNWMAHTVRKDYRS
Method in brief: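 Enzyme: BV949 p85(iSH2)-Gly linker-p110β FL-His, 25 nM. Substrate: PI 10 μg/mL. ATP: 1 μM, added to start. Buffer: Tris pH 7.5 10 mM, MgCl2 3 mM, NaCl 50 mM, CHAPS 0.05%, DTT 1 mM. RT, 60 min. Readout: Kinase-Glo. IC50 by 4-parameter fit.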

T1 sequence (P42336 with tags, fused parts or gaps limits assumed): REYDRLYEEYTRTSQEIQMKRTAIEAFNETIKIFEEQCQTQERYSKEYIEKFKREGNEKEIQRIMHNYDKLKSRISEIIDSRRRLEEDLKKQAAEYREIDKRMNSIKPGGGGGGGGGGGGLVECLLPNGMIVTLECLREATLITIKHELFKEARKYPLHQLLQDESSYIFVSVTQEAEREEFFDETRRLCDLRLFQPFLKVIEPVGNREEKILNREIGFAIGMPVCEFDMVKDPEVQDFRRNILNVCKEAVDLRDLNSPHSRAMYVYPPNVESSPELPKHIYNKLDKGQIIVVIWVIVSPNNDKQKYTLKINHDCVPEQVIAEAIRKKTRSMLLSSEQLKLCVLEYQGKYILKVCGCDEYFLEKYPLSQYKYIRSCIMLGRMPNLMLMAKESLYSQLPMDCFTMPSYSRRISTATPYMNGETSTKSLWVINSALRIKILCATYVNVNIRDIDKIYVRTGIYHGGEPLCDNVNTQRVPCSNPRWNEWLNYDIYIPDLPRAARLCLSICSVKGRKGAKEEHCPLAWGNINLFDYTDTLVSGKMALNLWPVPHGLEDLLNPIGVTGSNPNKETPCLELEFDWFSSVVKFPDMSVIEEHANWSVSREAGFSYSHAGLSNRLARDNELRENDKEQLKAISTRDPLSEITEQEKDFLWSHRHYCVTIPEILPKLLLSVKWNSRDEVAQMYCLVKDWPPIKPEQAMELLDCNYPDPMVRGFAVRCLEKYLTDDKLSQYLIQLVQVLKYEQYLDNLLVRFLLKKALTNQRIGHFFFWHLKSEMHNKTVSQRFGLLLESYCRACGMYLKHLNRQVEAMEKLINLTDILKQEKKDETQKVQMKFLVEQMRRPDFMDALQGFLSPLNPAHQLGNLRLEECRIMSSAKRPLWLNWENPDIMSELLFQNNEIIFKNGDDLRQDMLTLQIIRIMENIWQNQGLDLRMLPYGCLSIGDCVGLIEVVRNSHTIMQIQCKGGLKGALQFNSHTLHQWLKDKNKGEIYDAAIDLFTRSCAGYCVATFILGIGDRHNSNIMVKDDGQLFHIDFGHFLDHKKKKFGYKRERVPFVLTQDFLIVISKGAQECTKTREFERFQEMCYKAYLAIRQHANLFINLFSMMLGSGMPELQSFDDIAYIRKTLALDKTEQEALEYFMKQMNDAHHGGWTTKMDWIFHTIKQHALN

Row | Structure (SMILES) | IC50 [1] [nM] | IC50 [2] [nM] | IC50 [3] [nM]
1 | CCOc1ccc(-c2ccc3ncc4c(c3c2)n(-c2ccnn2CC)c(=O)n4C)cn1 [Example 3.4, 8-(6-Ethoxy-pyridin-3-yl)-1-(2-ethyl-2H-pyrazol-3-yl)-3-methyl-1,3-dihydro-imidazo[4,5-c]quinolin-2-one] | 217 | 214 | 
2 | Cc1nn(CC(=O)N(C)C)cc1-n1c(=O)n(C)c2cnc3ccc(-c4ccccc4)cc3c21 [Example 37.3, N,N-Dimethyl-2-[3-methyl-4-(3-methyl-2-oxo-8-phenyl-2,3-dihydro-imidazo[4,5-c]quinolin-1-yl)-pyrazol-1-yl]-acetamide] | 71 | 40 | 
3 | Cc1nn(CC(=O)N(C)C)c(C)c1-n1c(=O)n(C)c2cnc3ccc(-c4cncc(OC5CCC5)c4)cc3c21 [Example 60.2, 2-{4-[8-(5-Cyclobutoxy-pyridin-3-yl)-3-methyl-2-oxo-2,3-dihydro-imidazo[4,5-c]quinolin-1-yl]-3,5-dimethyl-pyrazol-1-yl}-N,N-dimethyl-acetamide] | 315 | 829 | 
4 | COc1ncc(-c2ccc3ncc4c(c3c2)n(-c2cn(C)nc2C)c(=O)n4C)cc1NC(C)=O [Example 64, N-{5-[1-(1,3-Dimethyl-1H-pyrazol-4-yl)-3-methyl-2-oxo-2,3-dihydro-1H-imidazo[4,5-c]quinolin-8-yl]-2-methoxy-pyridin-3-yl}-acetamide] | 87 | 12 | 322
5 | COc1ncc(-c2ccc3ncc4c(c3c2)n(-c2cn(C)nc2C)c(=O)n4C)cc1C(N)=O [Example 125.2, 5-[1-(1,3-Dimethyl-1H-pyrazol-4-yl)-3-methyl-2-oxo-2,3-dihydro-1H-imidazo[4,5-c]quinolin-8-yl]-2-methoxy-nicotinamide] | 50 | 82 | 93
6 | COc1ncc(-c2ccc3ncc4c(c3c2)n(-c2cn(C)nc2C)c(=O)n4C)cc1C#N [Example 132, 5-[1-(1,3-Dimethyl-1H-pyrazol-4-yl)-3-methyl-2-oxo-2,3-dihydro-1H-imidazo[4,5-c]quinolin-8-yl]-2-methoxy-nicotinonitrile] | 138 | 51 | 161
7 | CCN(C)C(=O)Cn1cc(-n2c(=O)n(C)c3cnc4ccc(-c5ccccc5)cc4c32)c(C)n1 [Example 135, N-Ethyl-N-methyl-2-[3-methyl-4-(3-methyl-2-oxo-8-phenyl-2,3-dihydro-imidazo[4,5-c]quinolin-1-yl)-pyrazol-1-yl]-acetamide] | 76 | 26 | 
8 | CCN(C)C(=O)Cn1cc(-n2c(=O)n(C)c3cnc4ccc(-c5cnc(N6CCCC6)nc5)cc4c32)c(C)n1 [Example 140.1, N-Ethyl-N-methyl-2-{3-methyl-4-[3-methyl-2-oxo-8-(2-pyrrolidin-1-yl-pyrimidin-5-yl)-2,3-dihydro-imidazo[4,5-c]quinolin-1-yl]-pyrazol-1-yl}-acetamide] | 168 | 84 | 
9 | CNc1ncc(-c2ccc3ncc4c(c3c2)n(-c2c(C)nn(C)c2C)c(=O)n4C)cc1F [Example 141.1, 8-(5-Fluoro-6-methylamino-pyridin-3-yl)-3-methyl-1-(1,3,5-trimethyl-1H-pyrazol-4-yl)-1,3-dihydro-imidazo[4,5-c]quinolin-2-one] | 817 | 150 | 469
10 | Cc1noc(C)c1-n1c(=O)n(C)c2cnc3ccc(-c4cnc(N)c(Cl)c4)cc3c21 [Example 148.4, 8-(6-Amino-5-chloro-pyridin-3-yl)-1-(3,5-dimethyl-isoxazol-4-yl)-3-methyl-1,3-dihydro-imidazo[4,5-c]quinolin-2-one] | 100 | 151 | 95
11 | CCNc1cc(-c2ccc3ncc4c(c3c2)n(-c2c(C)nn(C)c2C)c(=O)n4C)cnc1F [Example 154.1, 8-(5-Ethylamino-6-fluoro-pyridin-3-yl)-3-methyl-1-(1,3,5-trimethyl-1H-pyrazol-4-yl)-1,3-dihydro-imidazo[4,5-c]quinolin-2-one] | 157 | 102 | 98

Compounds with a lower IC50 [1], results first:

Row | IC50 [1] [nM] | IC50 [2] [nM] | IC50 [3] [nM] | Structure (SMILES)
12 | 30 | 12 | 180 | COc1ccc(-c2ccc3ncc4c(c3c2)n(-c2cc(C)nn2C)c(=O)n4C)cn1 [Example 2.3, 1-(2,5-Dimethyl-2H-pyrazol-3-yl)-8-(6-methoxy-pyridin-3-yl)-3-methyl-1,3-dihydro-imidazo[4,5-c]quinolin-2-one]
13 | 7 | 53 | 69 | CCN(C)C(=O)Cn1cc(-n2c(=O)n(C)c3cnc4ccc(-c5cncc(OC(C)C)c5)cc4c32)c(C)n1 [Example 58.5, N-Ethyl-2-{4-[8-(5-isopropoxy-pyridin-3-yl)-3-methyl-2-oxo-2,3-dihydro-imidazo[4,5-c]quinolin-1-yl]-3-methyl-pyrazol-1-yl}-N-methyl-acetamide]
14 | 48 | 1 |  | Cc1nn(C)cc1-n1c(=O)n(C)c2cnc3ccc(-c4ccc(-n5cccn5)nc4)cc3c21 [Example 79, 1-(1,3-Dimethyl-1H-pyrazol-4-yl)-3-methyl-8-(6-pyrazol-1-yl-pyridin-3-yl)-1,3-dihydro-imidazo[4,5-c]quinolin-2-one]
15 | 43 | 237 | 335 | CCNc1cc(-c2ccc3ncc4c(c3c2)n(-c2c(C)nn(CC(=O)N(C)C)c2C)c(=O)n4C)cnc1C [Example 87.5, 2-{4-[8-(5-Ethylamino-6-methyl-pyridin-3-yl)-3-methyl-2-oxo-2,3-dihydro-imidazo[4,5-c]quinolin-1-yl]-3,5-dimethyl-pyrazol-1-yl}-N,N-dimethyl-acetamide]
16 | 44 | 17 | 115 | CCNc1cc(-c2ccc3ncc4c(c3c2)n(-c2c(C)nn(CCOC)c2C)c(=O)n4C)cnc1OC [Example 90.2, 8-(5-Ethylamino-6-methoxy-pyridin-3-yl)-1-[1-(2-methoxy-ethyl)-3,5-dimethyl-1H-pyrazol-4-yl]-3-methyl-1,3-dihydro-imidazo[4,5-c]quinolin-2-one]
17 | 16 | 13 | 33 | Cc1nn(C)cc1-n1c(=O)n(C)c2cnc3ccc(-c4cnc5cc[nH]c5c4)cc3c21 [Example 99, 1-(1,3-Dimethyl-1H-pyrazol-4-yl)-3-methyl-8-(1H-pyrrolo[3,2-b]pyridin-6-yl)-1,3-dihydro-imidazo[4,5-c]quinolin-2-one]
18 | 14 | < 5 | 142 | CNc1ncc(-c2ccc3ncc4c(c3c2)n(-c2cn(C)nc2C)c(=O)n4C)cc1F [Example 141.2, 1-(1,3-Dimethyl-1H-pyrazol-4-yl)-8-(5-fluoro-6-methylamino-pyridin-3-yl)-3-methyl-1,3-dihydro-imidazo[4,5-c]quinolin-2-one]
19 | 28 | 157 | 201 | Cc1nn(C)c(C)c1-n1c(=O)n(C)c2cnc3ccc(-c4cnc(N)c(F)c4)cc3c21 [Example 142.1, 8-(6-Amino-5-fluoro-pyridin-3-yl)-3-methyl-1-(1,3,5-trimethyl-1H-pyrazol-4-yl)-1,3-dihydro-imidazo[4,5-c]quinolin-2-one]
20 | 35 | 70 | 176 | CNc1ncc(-c2ccc3ncc4c(c3c2)n(-c2c(C)nn(C)c2C)c(=O)n4C)cc1Cl [Example 146.4, 8-(5-Chloro-6-methylamino-pyridin-3-yl)-3-methyl-1-(1,3,5-trimethyl-1H-pyrazol-4-yl)-1,3-dihydro-imidazo[4,5-c]quinolin-2-one]
21 | 9 | 12 | 167 | CNc1ncc(-c2ccc3ncc4c(c3c2)n(-c2cc(C)nn2C)c(=O)n4C)cc1Cl [Example 146.5, 8-(5-Chloro-6-methylamino-pyridin-3-yl)-1-(2,5-dimethyl-2H-pyrazol-3-yl)-3-methyl-1,3-dihydro-imidazo[4,5-c]quinolin-2-one]
22 | 9 | 7 | 12 | CNc1cc(-c2ccc3ncc4c(c3c2)n(-c2cn(C)nc2C)c(=O)n4C)cnc1F [Example 150.2, 1-(1,3-Dimethyl-1H-pyrazol-4-yl)-8-(6-fluoro-5-methylamino-pyridin-3-yl)-3-methyl-1,3-dihydro-imidazo[4,5-c]quinolin-2-one]
23 | 5 | < 5 | 11 | Cc1ncc(-c2ccc3ncc4c(c3c2)n(-c2cn(C)nc2C)c(=O)n4C)cc1N(C)C [Example 164, 8-(5-Dimethylamino-6-methyl-pyridin-3-yl)-1-(1,3-dimethyl-1H-pyrazol-4-yl)-3-methyl-1,3-dihydro-imidazo[4,5-c]quinolin-2-one]
24 | 33 | 35 | 84 | CCNc1ncc(-c2ccc3ncc4c(c3c2)n(-c2cn(C)nc2C)c(=O)n4C)cc1COCC [Example 167, 1-(1,3-Dimethyl-1H-pyrazol-4-yl)-8-(5-ethoxymethyl-6-ethylamino-pyridin-3-yl)-3-methyl-1,3-dihydro-imidazo[4,5-c]quinolin-2-one]
